Measured values reported in patent US6924278B2, “Aroyl-piperazine derivatives, their preparation and their use as tachykinin antagonists” (Fujisawa Pharmaceutical Co., Ltd., priority 1997, dated 2005).

Assays:
[1] = system: emesis in the ferret; assay: Emesis in the ferret (copper sulfate-induced retching and vomiting); type: in vivo; settings: dose of 1.0 mg/kg i.v., 30 min before intra-gastric copper sulfate (40 mg/kg/ml), observed for the next 30 min
Protocol: Individually housed adult male ferrets (Marshall Farms, 1.4 to 2.2 kg) were given an i.v. injection of a solution contatining a test compound. 30 Min later the emetic responses (retching and vomiting) were induced by administration of intra-gastric copper sulfate (40 mg/kg/ml) and observed for the next 30 min. The timing and number of retches and vomits observed were recorded for each animal. An individual animal was tested with at least 10 days between experiments.

[2] = molecular target: T1, h-NK1 receptors (Homo sapiens, UniProt P25103); assay: Evaluation of NK1 antagonist transport efficiency to the central nervous system using a h-NK1 receptor binding assay (brain extract after i.v. dosing of rats); settings: 5 min; compound extracted from brain of male SD rats 5 min after i.v. injection at the dose of 1 mg/kg; CHO cell membranes expressing h-NK1; read-out: inhibition rate of 125I-BH-Substance P binding to h-NK1 receptors
T1 construct: expressed in transfected cells; host or cells: CHO cells (permanent expression), crude cell membranes
Protocol: A. Evaluation of NK1 Antagonist Transport Efficiency to the Cental Nervous System using a h-NK1 Receptor Binding Assay
(1) Administration of Test Compound and Extraction of the Compound from Brain
Male SD rats were given an i.v. injection of a solution containing a test compound (1 mg/kg). 5 Min later the animals were anesthetized by ether, bled and perfused through the aorta ascendens with 20 ml of saline. The brain was rapidly removed, weighed and homogenized in 4 vol. ice-cold distilled water by using Polytoron (KINEMATICA). To extract the test compound, 500 μl of the homogenate, 100 μl of methanol, 500 μl of 0.1 N NaOH and 4 ml of ethyl acetate were mixed by shaking for 10 min at room temperature. The organic phase (2.5 ml) was recovered by centrifugation at 3,000 rpm for 10 min, dried and dissolved in dimethyl sulfoxide.
(2) h-NK1 Receptor Binding Assay
(a) Crude CHO Cell Membrane Preparation
CHO cells permanently expressing h-NK1 receptors were harvested and homogenized with a Dounce homogenizer at 4° C. in a buffer (0.25 M sucrose, 25 mM Tris-HCl (pH 7.4), 10 mM MgCl2, 1 mM EDTA, 5 μg/ml p-APMSF). The homogenate was centrifuged (500×g, 10 min), and the pellet was resuspended in the same buffer, homogenized, and centrifuged. The two supernatants were combined and centrifuged (100,000×g, 1 hour). The crude cell membranes thus isolated were resuspended in a buffer (25 mM Tris-HCl (pH 7.4), 10 mM MgCl2, 1 mM. EDTA, 5 μg/ml p-APMSF) and stored at −80° C. until use.
(b) ^125I-BH-Substance P Binding to the Prepared Membrane
Cell membranes (6 μg/ml) were incubated with ^125I-BH-Substance P (0.1 nM) with or without the extracted compounds in 0.25 ml of a medium (50 mM Tris-HCl (pH 7.4), 5 mM MnCl2, 20 μg/ml chymostatin, 40 μg/ml bacitracin, 4 μg/ml leupeptin, 5 μg/ml p-APMSF, 200 μg/ml BSA) at 22° C. for 90 min. At the end of the incubation period, the contents were quickly filtered through a Blue Mat 11740 filter (pretreated with 0.1% polyethylenimine for 3 hours prior to use) by using SKATRON Cell Harvester. The filter was then washed with a washing buffer (50 mM Tris-HCl (pH 7.4), 5 mM MnCl2). The radioactivity was counted by using an auto gamma counter (Packard RIASTAR 5420A). All data presented are specific binding defined as that displaceable by 3 μM unlabeled Substance P.

T1 sequence (P25103 whole entry): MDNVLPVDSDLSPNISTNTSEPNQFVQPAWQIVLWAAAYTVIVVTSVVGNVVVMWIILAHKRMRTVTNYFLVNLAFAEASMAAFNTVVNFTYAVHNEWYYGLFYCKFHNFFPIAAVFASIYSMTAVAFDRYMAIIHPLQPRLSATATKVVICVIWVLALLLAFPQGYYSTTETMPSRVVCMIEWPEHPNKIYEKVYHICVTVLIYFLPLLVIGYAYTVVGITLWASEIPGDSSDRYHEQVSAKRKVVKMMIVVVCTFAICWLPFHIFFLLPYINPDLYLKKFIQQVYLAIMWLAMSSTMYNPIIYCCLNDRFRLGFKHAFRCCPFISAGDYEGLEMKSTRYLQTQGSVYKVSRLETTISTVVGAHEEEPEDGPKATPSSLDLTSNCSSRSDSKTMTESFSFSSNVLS

In the case of `Cl.Cl.O=C(c1cc(C(F)(F)F)cc(C(F)(F)F)c1)N1CCN(CCCc2ccccn2)C[C@H]1Cc1c[nH]c2ccccc12` [4-(2), (2R)-1-[3,5-Bis(trifluoromethyl)benzoyl]-2-[(1H-indol-3-yl)methyl]-4-[3-(2-pyridyl)propyl]piperazine dihydrochloride], the “inhibition rate of emesis in the ferret” value [1] is reported as 100% and the melting point is reported as 80 to 100 °C.

`Cc1ccc(C[C@@H]2CN(CC#CCN3CCOCC3(C)C)CCN2C(=O)c2cc([N+](=O)[O-])cc(C(F)(F)F)c2)cc1C.Cl.Cl` [90-(6), (2R)-2-(3,4-Dimethylbenzyl)-4-[4-(3,3-dimethylmorpholino)-2-butynyl]-1-[3-nitro-5-(trifluoromethyl)benzoyl]piperazine dihydrochloride] gave an inhibition at 1 mg/kg [2] of over 80% and a melting point of 157 to 200 °C.

In the case of `Cl.Cl.O=C(c1cc(C(F)(F)F)cc(C(F)(F)F)c1)N1CCN(C/C=C\c2cccnc2)C[C@H]1Cc1c[nH]c2ccccc12` [Example 5-(2), (2R)-1-[3,5-Bis(trifluoromethyl)benzoyl]-2-[(1H-indol-3-yl)methyl]-4-[(Z)-3-(3-pyridyl)-2-propenyl]piperazine dihydrochloride], the inhibition at 1 mg/kg [2] is reported as over 80% and the melting point is reported as 165 to 177 °C.

For `Cc1ccc(C[C@@H]2CN(CC#CCN3CCOCC3)CCN2C(=O)c2cc(Cl)cc(Cl)c2)cc1C.Cl.Cl` [Example 15, (2R)-1-(3,5-dichlorobenzoyl)-2-(3,4-dimethylbenzyl)-4-(4-morpholino-2-butynyl)piperazine dihydrochloride], the inhibition at 1 mg/kg [2] was over 80% and the melting point was 175 °C (dec.).

For `Cc1ccc(C[C@@H]2CN(CCCNN3CCOCC3)CCN2C(=O)c2cc(Cl)cc(Cl)c2)cc1C.Cl.Cl` [Example 17, (2R)-1-(3,5-dichlorobenzoyl)-2-(3,4-dimethylbenzyl)-4-(N-morpholino-3-aminopropyl)piperazine dihydrochloride], the inhibition at 1 mg/kg [2] was over 80% and the melting point was 71 °C (dec.).

In the case of `Cc1ccc(C[C@@H]2CN(CCCc3cn(C)cn3)CCN2C(=O)c2cc(C(F)(F)F)cc(C(F)(F)F)c2)cc1C.Cl.Cl` [Example 18, (2R)-1-[3,5-bis(trifluoromethyl)benzoyl]-2-(3,4-dimethylbenzyl)-4-[3-(1-methyl-1H-imidazol-4-yl)propyl]piperazine dihydrochloride], the inhibition at 1 mg/kg [2] is reported as over 80% and the melting point is reported as 91 °C (dec.).

With `Cc1ccc(C[C@@H]2CN(CCCN(C=O)N3CCOCC3)CCN2C(=O)c2cc(C(F)(F)F)cc(C(F)(F)F)c2)cc1C.Cl` [Example 26] the “inhibition rate of emesis in the ferret” value [1] was 100%.

In the case of `Cc1ccc(C[C@@H]2CN(Cc3cnn(CCN4CCOCC4)c3)CCN2C(=O)c2cc(C(F)(F)F)cc(C(F)(F)F)c2)cc1C.Cl.Cl` [Example 29, (2R)-1-[3,5-bis(trifluoromethyl)benzoyl]-2-(3,4-dimethylbenzyl)-4-[[1-(2-morpholinoethyl)-1H-pyrazol-4-yl]methyl]piperazine dihydrochloride], the inhibition at 1 mg/kg [2] is reported as over 80%, the “inhibition rate of emesis in the ferret” value [1] is reported as 100% and the melting point is reported as 115 to 116 °C.

For `CN(CCN1CCN(C(=O)c2cc(C(F)(F)F)cc(C(F)(F)F)c2)[C@H](Cc2ccc3ccccc3c2)C1)Cc1cccnc1.Cl.Cl` [Example 40], the “inhibition rate of emesis in the ferret” value [1] was 100%.

With `CN(CCN1CCN(C(=O)c2cc(C(F)(F)F)cc(C(F)(F)F)c2)[C@H](Cc2c[nH]c3ccccc23)C1)Cc1cccnc1.Cl.Cl` [Example 41, (2R)-1-[3,5-Bis(trifluoromethyl)benzoyl]-2-[(1H-indol-3-yl)methyl]-4-[2-[N-methyl-N-(3-pyridylmethyl)amino]ethyl]piperazine dihydrochloride] the “inhibition rate of emesis in the ferret” value [1] was 100%.

With `Cc1ccc(C[C@@H]2CN(C/C=C/[C@@H]3COCCN3)CCN2C(=O)c2cc(C(F)(F)F)cc(C(F)(F)F)c2)cc1C.Cl.Cl` [Example 45, (2R)-1-[3,5-bis(trifluoromethyl)benzoyl]-2-(3,4-dimethylbenzyl)-4-[(2E)-3-[(3R)-3-morpholinyl]-2-propenyl]piperazine dihydrochloride] the inhibition at 1 mg/kg [2] was over 80% and the melting point was 225 to 232 °C.

`Cc1ccc(C[C@@H]2CN(CC#C[C@@H]3COCCN3)CCN2C(=O)c2cc(C(F)(F)F)cc(C(F)(F)F)c2)cc1C.Cl.Cl` [Example 68, (2R)-1-[3,5-bis(trifluoromethyl)benzoyl]-2-(3,4-dimethylbenzyl)-4-[3-[(3R)-morpholin-3-yl]-2-propynyl]piperazine dihydrochloride] showed an inhibition at 1 mg/kg [2] of over 80% and a melting point of 190 to 191 °C.
